Reference: patent publication US9487530B2, “Transient protection of normal cells during chemotherapy” (G1 Therapeutics, Inc., priority 2013, dated 2016)
Where two headings read alike, the source gives them in different places. Blank lines part the entries; values can stand above or below the molecule they belong to.

How the values were obtained:
[1] = system: Rb-positive cell line (WM2664 or tHS68); experiment: EdU proliferation, RB-intact Cdk4/6-dependent cell line; type: cell-based; conditions: 24 hours treatment
Method: (§1) The effect of Cdk4/6 inhibition on proliferation was measured by EdU incorporation. An RB-intact, Cdk4/6-dependent cell line (WM2664 or tHS68) and a panel of RB-negative SCLC cell lines (H69, H82, H209, H345, NCI417, or SHP-77) were analyzed for growth inhibition by the various CDK4/6 inhibitors.

HSPCs = experiment: Bone marrow HSPC proliferation by EdU incorporation and flow cytometry; type: in vivo, mouse; conditions: for EdU incorporation into HSPCs compared to control: 150 mg/kg oral gavage, 12 and 24 hours, FIG. 6A
Method: Mice were then sacrificed at the indicated times (0, 12, 24, 36, or 48 hours following compound administration), and bone marrow was harvested (n=3 mice per time point), as previously described (Johnson et al. J. Clin. Invest. (2010) 120(7), 2528-2536). Four hours before the bone marrow was harvested, mice were treated with 100 μg of EdU by intraperitoneal injection (Invitrogen). Bone marrow mononuclear cells were harvested and immunophenotyped using previously described methods and percent EdU positive cells were then determined (Johnson et al. J. Clin. Invest. (2010) 120(7), 2528-2536). In brief, HSPCs were identified by expression of lineage markers (Lin−), ScaI (S+), and c-Kit (K+).
Four hours before animals were sacrificed and the bone marrow was harvested, mice were treated with 100 μg of EdU by intraperitoneal injection. Three mice per group were sacrificed at 12 hours and the remaining three animals per group were sacrificed at 24 hours. Results are shown in FIG. 6A as the ratio of EdU positive cells for treated animals at 12 or 24 hour time points compared to control.
Further experiments were completed with Compound T examining dose response and longer periods of compound treatment. […] […].
Both compounds were administered at 150 mg/kg by oral gavage. One hour prior to harvesting bone marrow, EdU was IP injected to label cycling cells. Bone marrow was harvested at 12, 24, 36, and 48 hours after compound treatment and the percentage of EdU positive HSPC cells was determined at each time point.

[2] = system: RB-negative SCLC cell lines (H69, H82, H209, H345, NCI417, SHP-77); experiment: EdU proliferation, RB-negative SCLC cell lines; type: cell-based, human; conditions: 24 hours treatment
Method: as §1

[3] = Mouse pharmacokinetics, oral gavage and intravenous; type: in vivo
bone marrow progenitors = experiment: Carboplatin-induced cytotoxicity in the bone marrow; type: in vivo, mouse; conditions: 150 mg/kg oral gavage plus 90 mg/kg carboplatin i.p.; 24 hours
Method: To assess the effect of transient CDK4/6 inhibition by Compound GG on carboplatin-induced cytotoxicity in the bone marrow, FVB/n mice (n=3 per group) were treated with vehicle control, 90 mg/kg carboplatin by intraperitoneal injection, or 150 mg/kg Compound GG by oral gavage plus 90 mg/kg carboplatin by intraperitoneal injection. 24 hours after treatment bone marrow was harvested and the percent of cycling bone marrow progenitors was measured by EdU incorporation as explained earlier. […] EdU incorporation in control animals was normalized to 100% and compared to EdU incorporation for bone marrow from carboplatin treated animals or carboplatin and Compound GG treated animals.

[4] = system: HSPC (LKS+) and myeloid progenitor cells (LKS-); conditions: single 150 mg/kg oral gavage; FIG. 5; cited from earlier work
[5] = system: Renal Proximal Tubule Epithelial Cells (Rb-positive); experiment: Cellular wash-out experiment, renal proximal tubule epithelial cells; type: cell-based, human; conditions: 300 nM; compared to cells treated with compounds T, Q, GG, or U
Method: Alternatively, the same experiment was done using normal Renal Proximal Tubule Epithelial Cells (Rb-positive) obtained from American Type Culture Collection (ATCC, Manassas, Va.). Cells were grown in an incubator at 37° C. in a humidified atmosphere of 5% CO2 in Renal Epithelial Cell Basal Media (ATCC) supplemented with Renal Epithelial Cell Growth Kit (ATCC) in 37° C. humidified incubator.
Upon harvesting cells, samples were stained with propidium iodide staining solution and samples run on Dako Cyan Flow Cytometer. The fraction of cells in G0-G1 DNA cell cycle versus the fraction in S-phase DNA cell cycle was determined using FlowJo 7.2.2 analysis.

[6] = in humans; cited from earlier work
[7] = in mice; cited from earlier work
[8] = PD0332991 pharmacokinetics and HSPC arrest in humans; type: in vivo, human; conditions: single administration
Method: When calculated half-life was longer than the duration of the experiment, the half-life was expressed as >the longest incubation time. The calculated half-life is also listed in parentheses. […] The timely resumption of cellular proliferation is necessary for tissue repair, and therefore an overly long period of arrest is undesirable in healthy cells such as HSPCs. The characteristics of a CDK4/6 inhibitor that dictate its arresting duration are its pharmacokinetic (PK) and enzymatic half-lives. Once initiated, a G1-arrest in vivo will be maintained as long as circulating compound remains at an inhibitory level, and as long as the compound engages the enzyme. […] […]. […] […]. These observations may explain the severe granulocytopenia seen with PD0332991 in the clinic.

CDK2/CycE = molecular target: T1, CDK2/CycE (Homo sapiens, UniProt P24941); experiment: CDK2/cyclinE kinase assay (Nanosyn, Caliper microfluidic); type: biochemical
T1 construct: Nanosyn (ran the assay as a service)
Method: (§2) Selected compounds disclosed herein were tested in CDK4/cyclinD1, CDK6/CycD3 CDK2/CycA and CDK2/cyclinE kinase assays by Nanosyn (Santa Clara, Calif.) to determine their inhibitory effect on these CDKs. The assays were performed using microfluidic kinase detection technology (Caliper Assay Platform). The compounds were tested in 12-point dose-response format in singlicate at Km for ATP. Phosphoacceptor substrate peptide concentration used was 1 μM for all assays and Staurosporine was used as the reference compound for all assays.

CDK4/CycD1 = molecular target: T2, CDK4/CycD1 (Homo sapiens, UniProt P11802); experiment: CDK4/cyclinD1 kinase assay (Nanosyn, Caliper microfluidic); type: biochemical
T2 construct: Nanosyn (ran the assay as a service)
Method: as §2, with “assays. Specifics of each assay are as described below:” for “assays.”
CDK4/CyclinD1: Enzyme concentration: 1 nM; ATP concentration: 200 μM; Incubation time: 10 hr.

T2 sequence (P11802 whole entry, species assumed): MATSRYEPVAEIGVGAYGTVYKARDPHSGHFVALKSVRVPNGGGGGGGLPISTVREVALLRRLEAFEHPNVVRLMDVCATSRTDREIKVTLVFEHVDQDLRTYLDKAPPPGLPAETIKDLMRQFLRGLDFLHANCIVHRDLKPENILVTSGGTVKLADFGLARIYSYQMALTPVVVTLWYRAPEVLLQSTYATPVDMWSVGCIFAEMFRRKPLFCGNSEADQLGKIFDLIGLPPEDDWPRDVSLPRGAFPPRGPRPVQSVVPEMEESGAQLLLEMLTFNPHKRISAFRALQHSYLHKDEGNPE
T2 sequence (P24385 whole entry partner, species assumed): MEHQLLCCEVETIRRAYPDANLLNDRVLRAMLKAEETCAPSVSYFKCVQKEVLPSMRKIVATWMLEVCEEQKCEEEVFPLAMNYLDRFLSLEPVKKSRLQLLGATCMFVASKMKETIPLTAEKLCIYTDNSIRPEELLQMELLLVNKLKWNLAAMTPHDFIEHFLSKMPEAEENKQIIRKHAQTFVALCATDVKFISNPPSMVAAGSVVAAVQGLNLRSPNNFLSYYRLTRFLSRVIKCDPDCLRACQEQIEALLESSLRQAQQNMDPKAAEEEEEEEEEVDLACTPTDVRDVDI

- F (oral bioavailability) [3]: 52%
Structure (SMILES): CC(C)N1CCN(c2ccc(Nc3ncc4cc5n(c4n3)C3(CCCCC3)CNC5=O)nc2)CC1 [GG, 2′-((5-(4-isopropylpiperazin-1-yl)pyridin-2-yl)amino)-7′,8′-dihydro-6′H-spiro[cyclohexane-1,9′-pyrazino[1′,2′:1,5]pyrrolo[2,3-d]pyrimidin]-6′-one]
- proliferation (cells in S-phase by EdU) [1]: inhibits
- EdU incorporation into HSPCs compared to control (HSPCs): reduction in EdU incorporation at 12 hours which was starting to return to normal at 24 hours
- growth (cells in S-phase by EdU) [2]: does not affect the growth
- cycling bone marrow progenitors (EdU incorporation) (bone marrow progenitors): significant protection of bone marrow progenitors

- oral bioavailability [3]: low
Structure (SMILES): O=C1NCC2(CCCCC2)n2c1cc1cnc(Nc3ccc(N4CCNCC4)cn3)nc12 [Q, 2′-((5-(piperazin-1-yl)pyridin-2-yl)amino)-7′,8′-dihydro-6′H-spiro[cyclohexane-1,9′-pyrazino[1′,2′:1,5]pyrrolo[2,3-d]pyrimidin]-6′-one]
- EdU incorporation into HSPCs compared to control (HSPCs): some reduction at 12 hours and started to return to baseline at 24 hours

Continued, molecule first:

Structure (SMILES): CC(=O)c1c(C)c2cnc(Nc3ccc(N4CCNCC4)cn3)nc2n(C2CCCC2)c1=O [PD0332991, 6-acetyl-8-cyclopentyl-5-methyl-2-(5-piperazin-1-yl-pyridin-2-ylammino)-8H-pyrido-[2,3-d]-pyrimidin-7-one]
- duration of sustained reduction in HSPC and myeloid progenitor cell EdU incorporation [4]: greater than 36 hours
- time until HSPC and myeloid progenitor cells return to baseline cell division [4]: 48 h
- proliferation (cells in S-phase by EdU) [1]: inhibits
- duration of sustained reduction in HSPCs (HSPCs; single 150 mg/kg oral dose, FIG. 7): greater than 36 hours
- time to return to baseline levels of cell division after wash out [5]: significantly longer
- growth (cells in S-phase by EdU) [2]: does not affect the growth
- PK half-life [6]: 27 h
- PK half-life [7]: 6 h
- duration of cell cycle arrest of HSPC [8]: approximately one week

Structure (SMILES): O=C1NCC2(CCCCC2)n2c1cc1cnc(Nc3ccc(N4CCC(N5CCOCC5)CC4)cn3)nc12 [U, 2′-((5-(4-morpholinopiperidin-1-yl)pyridin-2-yl)amino)-7′,8′-dihydro-6′H-spiro[cyclohexane-1,9′-pyrazino[1′,2′:1,5]pyrrolo[2,3-d]pyrimidin]-6′-one]
- F (oral bioavailability) [3]: 67%

Structure (SMILES): CCC(C)[C@@H]1CNC(=O)c2cc3cnc(Nc4ccc(N5CCNCC5)cn4)nc3n21 (stereo partly shown) [VVV]
- IC50 (CDK2/CycE): 4380 nM
- IC50 (CDK4/CycD1): 7.4 nM
